Measured values reported in article PMC11774580 (Chemosphere, 2024).
pIC50: −log10 of the molar value.

Legend:
human OCT2 [1] = target: T1, human OCT2 (Homo sapiens, UniProt O15244); assay: hOCT2 substrate; assay type: in vitro ADME; details: 1 μM PFAS screen
T1 sequence (O15244 1-555): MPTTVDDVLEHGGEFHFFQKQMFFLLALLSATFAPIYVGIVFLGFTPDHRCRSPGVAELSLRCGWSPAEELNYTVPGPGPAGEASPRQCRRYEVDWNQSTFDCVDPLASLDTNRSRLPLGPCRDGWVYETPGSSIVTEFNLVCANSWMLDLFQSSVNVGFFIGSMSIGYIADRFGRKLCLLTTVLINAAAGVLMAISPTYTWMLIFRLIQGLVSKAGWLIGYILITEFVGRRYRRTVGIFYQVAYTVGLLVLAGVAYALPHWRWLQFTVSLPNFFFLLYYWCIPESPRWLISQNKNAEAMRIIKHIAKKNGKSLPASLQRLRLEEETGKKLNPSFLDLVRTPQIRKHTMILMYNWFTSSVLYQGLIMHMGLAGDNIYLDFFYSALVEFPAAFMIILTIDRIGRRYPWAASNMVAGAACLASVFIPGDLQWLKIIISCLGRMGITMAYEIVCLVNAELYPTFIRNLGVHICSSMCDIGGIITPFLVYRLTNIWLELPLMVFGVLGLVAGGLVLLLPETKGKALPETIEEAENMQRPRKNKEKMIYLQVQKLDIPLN

human OAT1 [2] = target: T2, human OAT1 (Homo sapiens, UniProt Q4U2R8); assay: OAT1 inhibition assay
T2 sequence (Q4U2R8 1-563): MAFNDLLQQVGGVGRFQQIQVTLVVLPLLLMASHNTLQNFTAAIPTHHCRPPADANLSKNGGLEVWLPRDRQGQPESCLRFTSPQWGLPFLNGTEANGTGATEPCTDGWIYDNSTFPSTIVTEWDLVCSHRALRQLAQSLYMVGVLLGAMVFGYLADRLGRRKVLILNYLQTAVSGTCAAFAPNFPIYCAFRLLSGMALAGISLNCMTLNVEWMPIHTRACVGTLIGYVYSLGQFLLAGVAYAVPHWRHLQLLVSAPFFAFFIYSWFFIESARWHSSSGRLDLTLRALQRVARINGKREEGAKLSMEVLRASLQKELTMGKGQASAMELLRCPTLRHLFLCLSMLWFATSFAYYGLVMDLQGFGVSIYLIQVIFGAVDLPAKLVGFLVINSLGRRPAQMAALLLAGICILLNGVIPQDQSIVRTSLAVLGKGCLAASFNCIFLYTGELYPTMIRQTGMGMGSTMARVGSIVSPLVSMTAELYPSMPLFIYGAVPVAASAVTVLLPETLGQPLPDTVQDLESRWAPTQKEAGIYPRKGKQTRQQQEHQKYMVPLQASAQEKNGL

human OAT3 [3] = target: T3, human OAT3 (Homo sapiens, UniProt Q8TCC7); assay: OAT3 inhibition assay
T3 sequence (Q8TCC7 1-542): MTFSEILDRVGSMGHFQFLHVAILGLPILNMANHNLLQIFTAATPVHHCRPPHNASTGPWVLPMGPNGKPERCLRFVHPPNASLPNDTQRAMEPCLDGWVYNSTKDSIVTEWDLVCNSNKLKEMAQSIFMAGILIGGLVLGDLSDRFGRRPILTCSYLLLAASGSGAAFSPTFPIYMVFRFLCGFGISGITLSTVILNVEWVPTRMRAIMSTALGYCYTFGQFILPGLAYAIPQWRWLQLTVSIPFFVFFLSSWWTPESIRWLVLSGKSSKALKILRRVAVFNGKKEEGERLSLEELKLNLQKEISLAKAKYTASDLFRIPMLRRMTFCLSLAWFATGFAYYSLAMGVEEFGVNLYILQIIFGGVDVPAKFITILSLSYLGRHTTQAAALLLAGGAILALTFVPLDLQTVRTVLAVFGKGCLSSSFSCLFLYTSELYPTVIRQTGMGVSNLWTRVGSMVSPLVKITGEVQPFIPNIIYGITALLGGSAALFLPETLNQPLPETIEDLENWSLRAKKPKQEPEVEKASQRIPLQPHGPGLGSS

human OAT3 [4] = target: T3, human OAT3; assay: hOAT3 substrate
[5] = PFHpA versus PFUDA; ref Zhang et al. (2013); cited from earlier work
human OAT1 [6] = target: T2, human OAT1; assay: hOAT1 substrate; details: 1 μM PFAS screen
human OAT4 = target: T4, human OAT4 (Homo sapiens, UniProt Q9NSA0); assay: hOAT4 substrate; assay type: in vitro ADME
T4 sequence (Q9NSA0 1-550): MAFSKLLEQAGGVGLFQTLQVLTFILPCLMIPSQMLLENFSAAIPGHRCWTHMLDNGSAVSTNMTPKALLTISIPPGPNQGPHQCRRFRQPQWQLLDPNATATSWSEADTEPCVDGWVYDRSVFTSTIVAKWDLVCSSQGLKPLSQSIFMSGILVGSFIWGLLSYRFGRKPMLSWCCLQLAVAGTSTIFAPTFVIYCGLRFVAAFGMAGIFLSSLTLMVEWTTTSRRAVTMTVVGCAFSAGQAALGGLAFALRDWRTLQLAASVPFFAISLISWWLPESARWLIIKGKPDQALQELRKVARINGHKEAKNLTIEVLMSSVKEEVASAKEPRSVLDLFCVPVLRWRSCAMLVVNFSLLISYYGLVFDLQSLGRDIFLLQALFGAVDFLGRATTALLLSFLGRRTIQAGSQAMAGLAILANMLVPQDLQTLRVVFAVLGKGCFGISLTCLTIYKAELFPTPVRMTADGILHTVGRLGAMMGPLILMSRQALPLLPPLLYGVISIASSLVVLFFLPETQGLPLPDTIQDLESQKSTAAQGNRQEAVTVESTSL

human OCT2 [7] = target: T1, human OCT2; assay: OCT2 inhibition assay; assay type: cell-based
[8] = tested on: MDCKII-LE cell monolayers; details: MDCK
in vitro = details: dog, MDCK, pH 7.4
[9] = Physicochemical parameters

Row | SMILES | hOCT2 uptake ratio, % higher than mock transfectant controls (human OCT2 [1]) | Some level of inhibition against hOAT1 mediated transport (human OAT1 [2]) | Some level of inhibition against hOAT3 mediated transport (human OAT3 [3]) | hOAT3 uptake ratio, fold higher than mock transfected controls (human OAT3 [4]; 1 μM PFAS screen) | Transporter Uptake Ratio OAT3 (human OAT3 [4]; 1 μM PFAS, threshold ≥ 2-fold) | hOAT3-mediated uptake, fold (human OAT3 [4]; follow-up test, without probenecid) | Effect of probenecid cotreatment on hOAT3-mediated uptake (human OAT3 [4]; probenecid 1 mM) | human renal clearance rate, fold higher than PFUDA [5] | hOAT1 uptake ratio, % higher than controls (human OAT1 [6]) | pIC50 (human OAT1 [2]) | pIC50 (human OAT3 [3]) | OAT4 substrate classification (human OAT4) | hOAT4 uptake ratio, % above controls (human OAT4; 1 μM PFAS screen) | Transporter Uptake Ratio OAT4 (human OAT4; 1 μM PFAS, threshold ≥ 2-fold) | Effect of probenecid co-treatment on hOAT4-mediated uptake (human OAT4; probenecid 1 mM) | pIC50 (human OCT2 [7]) | Papp at pH 6.5 relative to pH 7.4, times higher [8] | Ph 7.4 A-B Papp ([8]; dog, 90 min, 2 μM, pH 7.4) [×10⁻⁶ cm/s] | Papp A→B at 90 min, 2 μM (in vitro) [×10⁻⁶ cm/s] | neutral fraction at pH 7.4 [9]
1 | O=C(O)C(F)(F)C(F)(F)C(F)(F)C(F)(F)C(F)(F)C(F)(F)C(F)(F)C(F)(F)C(F)(F)C(F)(F)C(F)(F)F [PFDoDA, perfluorododecanoic acid] | ~ 10% | the only exceptions | the only exceptions |  |  |  |  |  |  |  |  |  |  |  |  |  |  |  |  | 
2 | O=C(O)C(F)(F)C(F)(F)C(F)(F)C(F)(F)C(F)(F)C(F)(F)F [PFHpA, perfluoroheptanoic acid] |  |  |  | 2.5–12 fold | + (denoted with a “+” to denote a threshold of ≥ 2-fold has been met and considered a substrate for the transporter) | 2.5–15 fold | markedly inhibited | ~ 10 fold | 5–60% | 3.78 to 4.29 | 4.99 | strong substrates | ~ 20% | + (denoted with a “+” to denote a threshold of ≥ 2-fold has been met and considered a substrate for the transporter) | effectively inhibited |  |  |  |  | 
3 | NS(=O)(=O)C(F)(F)C(F)(F)C(F)(F)C(F)(F)C(F)(F)C(F)(F)C(F)(F)C(F)(F)F [PFOSA, perfluorooctanesulfonamide] | ~ 10% |  |  |  |  |  |  |  |  |  | 3.91 to 4.68 |  |  |  |  | 3.61 | ~ 2 times | 41.4 | 41.4 | ~ 6%
